In US20230357233A1, “HETEROARYL COMPOUNDS, PREPARATION METHODS AND USES THEREOF” (INVENTISBIO CO., LTD., priority 2020, published 2023):

Each compound was assayed against Ba/F3_KRAS^G12D cells (Homo sapiens, UniProt P01116, G12D, cells depend on it) (assay: Ba/F3 KRAS^G12D cell proliferation assay (cell-titer Glo)). Details: cell growth inhibition, treated with the compounds for 3 days, read-out: BaF3_KRAS^G12D IC50.
Type: cell-based
Protocol: Cells were seeded at a density of 5×10^3 per well into 96-well plate and incubated overnight. Serial diluted compounds were added to each well. Cells were treated with the compounds for 3 days, after which cell-titer Glo reagent (Promega #G7572) was used to assess cell proliferation. The luminescence signal was then collected on Tecan Spark plate reader. […] Cell growth inhibition of IC50 is calculated with the equation of Y=Bottom+(Top−Bottom)/(1+10^((LogIC50−X)*HillSlope))

Ba/F3_KRAS^G12D cells, sequence (P01116 whole entry G12D): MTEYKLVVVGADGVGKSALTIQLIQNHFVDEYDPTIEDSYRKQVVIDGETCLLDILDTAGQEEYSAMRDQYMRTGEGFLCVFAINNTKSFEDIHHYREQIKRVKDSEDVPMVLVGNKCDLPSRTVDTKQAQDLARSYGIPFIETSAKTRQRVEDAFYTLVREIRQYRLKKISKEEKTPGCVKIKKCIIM

| Compound | GI50 |
| --- | --- |
| C#Cc1c(F)ccc2cc(O)cc(-c3nc(OC(C)C)c4c(N5CC6CCC(C5)N6)nc(OC[C@]56CCCN5[C@@H](COC(=O)N(C)C)CC6)nc4c3F)c12 [Compound 225] | < 500 nM |
| C#Cc1c(F)ccc2cc(N)cc(-c3nc(OC(C)C)c4c(N5CC6CCC(C5)N6)nc(OC[C@@H]5C[C@H](F)CN5C)nc4c3F)c12 [Compound 207] | < 500 nM |
| C#Cc1c(F)ccc2cc(O)cc(-c3nc(OC(C)C)c4c(N5CC6CCC(C5)N6)ncnc4c3F)c12 [Compound 150] | < 500 nM |
| C#Cc1c(F)ccc2cc(O)cc(-c3nc(OC(C)C)c4c(N5CC6CCC(C5)N6)nc(OCC5(CN6CCN(C(=O)OC)CC6)CC5)nc4c3F)c12 [Compound 232] | < 500 nM |
| C#Cc1c(F)ccc2cc(O)cc(-c3nc(OC(C)C)c4c(N5CC6CCC(C5)N6)nc(OCCN(C)C)nc4c3F)c12 [Compound 194] | < 500 nM |
| C#Cc1c(F)ccc2cc(O)cc(-c3nc(OC(C)C)c4c(N5CC6CCC(C5)N6)nc(OC[C@]56CCCN5[C@H](CO)CC6)nc4c3F)c12 [Compound 228] | < 500 nM |
| CCc1c(F)ccc2cc(O)cc(-c3ncc4c(N5CC6CCC(C5)N6)nc(OC[C@@]56CCCN5C[C@H](F)C6)nc4c3F)c12 [Compound 140] | < 500 nM |
| C#Cc1c(F)ccc2cccc(-c3nc(OC(C)C)c4c(N5CC6CCC(C5)N6)nc(OC[C@]56CCCN5[C@@H](COC(=O)N5CCOCC5)CC6)nc4c3F)c12 [Compound 245] | < 500 nM |
| C#Cc1c(F)ccc2cc(O)cc(-c3nc(OC(C)C)c4c(N5CC6CCC(C5)N6)nc(OC[C@@H]5C[C@H](F)CN5C)nc4c3F)c12 [Compound 204] | < 500 nM |
| C#Cc1c(F)ccc2cc(O)cc(-c3c(F)c4nc(OC[C@@]56CCCN5C[C@H](F)C6)nc(N5CC6CCC(C5)N6)c4c4ncnn34)c12 (single isomer, unassigned) [Compound 155] | < 500 nM |
| C#Cc1c(F)ccc2cc(O)cc(-c3nc(OC(C)C)c4c(N5CCNC(C(F)F)C5)nc(OC[C@@]56CCCN5C[C@H](F)C6)nc4c3F)c12 (stereo partly shown) [Compound 220] | < 500 nM |
| CCOc1nc(-c2cccc3ccc(F)c(CC)c23)c(F)c2nc(OC[C@]34CCCN3[C@@H](COC(=O)N(C)C)CC4)nc(N3CC4CCC(C3)N4)c12 [Compound 237] | < 500 nM |
| C#Cc1c(F)ccc2cc(O)cc(-c3nc(O)c4c(N5CC6CCC(C5)N6)nc(OCCOC)nc4c3F)c12 [Compound 193] | < 500 nM |
| C#Cc1c(F)ccc2cc(O)cc(-c3nc(OC)c4c(N5CC6CCC(C5)N6)nc(OCC5(CN(C)C)CC5)nc4c3F)c12 [Compound 182] | < 500 nM |
| Cc1nc(N)cc(-c2nc(OC(C)C)c3c(N4CC5CCC(C4)N5)nc(OC[C@@]45CCCN4C[C@H](F)C5)nc3c2F)c1C(F)(F)F [Compound 198] | < 500 nM |
| Oc1cc(-c2nc(C(F)F)c3c(N4CC5CCC(C4)N5)nc(OC[C@@]45CCCN4C[C@H](F)C5)nc3c2F)c2c(Cl)c(F)ccc2c1 [Compound 167] | < 500 nM |
| C#Cc1c(F)ccc2cc(O)cc(-c3nc(O)c4c(N5CC6CCC(C5)N6)nc(NC)nc4c3F)c12 [Compound 187] | 500 to 5000 nM |
| CCc1c(F)ccc2cc(O)cc(-c3nc(OC)c4c(N5CC6CCC(C5)N6)nc(OC[C@]56CCCN5[C@@H](COC(=O)N(C)C)CC6)nc4c3F)c12 [Compound 215] | < 500 nM |
| CC#Cc1c(F)ccc2cc(O)cc(-c3nc(OC)c4c(N5CC6CCC(C5)N6)nc(OC[C@@]56CCCN5C[C@H](F)C6)nc4c3F)c12 [Compound 146] | < 500 nM |
| C#Cc1c(F)ccc2cc(N)cc(-c3nc(O)c4c(N5CC6CCC(C5)N6)nc(OC[C@@]56CCCN5C[C@H](F)C6)nc4c3F)c12 [Compound 201] | 500 to 5000 nM |
| C#Cc1c(F)ccc2cc(O)cc(-c3nc(O)c4c(N5CC6CCC(C5)N6)nc(OC[C@@H]5CCCN5C)nc4c3F)c12 [Compound 196] | 500 to 5000 nM |
| C#Cc1c(F)ccc2cc(O)cc(-c3nc(OCC(F)F)c4c(N5CC6CCC(C5)N6)nc(OC[C@@]56CCCN5C[C@H](F)C6)nc4c3F)c12 [Compound 180] | < 500 nM |
| CCc1c(F)ccc2cc(N)cc(-c3nc(OC)c4c(N5CC6CCC(C5)N6)nc(OC[C@@]56CCCN5C[C@H](F)C6)nc4c3F)c12 [Compound 164] | < 500 nM |
| CCc1c(F)ccc2cccc(-c3nc(OC)c4c(N5CC6CCC(C5)N6)nc(OC[C@]56CCCN5[C@@H](COC(=O)N(C)C)CC6)nc4c3F)c12 [Compound 217] | < 500 nM |
| C#Cc1c(F)ccc2cc(O)cc(-c3nc(OC(C)C)c4c(N5CC6CCC(C5)N6)nc(OC)nc4c3F)c12 [Compound 191] | < 500 nM |
| C#Cc1c(F)ccc2cc(O)cc(-c3nc(OC(C)C)c4c(N5CC6CCC(C5)N6)nc(OC[C@]56CCCN5[C@@H](CO)CC6)nc4c3F)c12 [Compound 227] | < 500 nM |

The next lines start with the values.

| GI50 | Compound |
| --- | --- |
| 500 to 5000 nM | C#Cc1c(F)ccc2cc(O)cc(-c3nc(OC(C)C)c4c(N5CC6CCC(C5)N6)nc(N)nc4c3F)c12 [Compound 188] |
| < 500 nM | C#Cc1c(F)ccc2cccc(-c3nc(OC)c4c(N5CC6CCC(C5)N6)nc(OC[C@]56CCCN5[C@@H](COC(=O)N(C)C)CC6)nc4c3F)c12 [Compound 216] |
| < 500 nM | C#Cc1c(F)ccc2cc(N)cc(-c3nc(OC)c4c(N5CC6CCC(C5)N6)nc(OC[C@@H]5C[C@@H](F)CN5C)nc4c3F)c12 [Compound 208] |
| 500 to 5000 nM | C#Cc1c(F)ccc2cccc(-c3nc(OC)c4c(N5CCNCC(F)(F)C5)nc(OC[C@]56CCCN5[C@@H](COC(=O)N(C)C)CC6)nc4c3F)c12 [Compound 247] |
| < 500 nM | C#Cc1c(F)ccc2cc(O)cc(-c3nc(OCC)c4c(N5C[C@H]6CC[C@@H](C5)[C@@H]6O)nc(OC[C@@]56CCCN5C[C@H](F)C6)nc4c3F)c12 [Compound 212] |
| < 500 nM | C#Cc1c(F)ccc2cc(O)cc(-c3nc(OC(C)C)c4c(N5CCNCC(F)(F)C5)nc(OC[C@@]56CCCN5C[C@H](F)C6)nc4c3F)c12 [Compound 219] |
| < 500 nM | C#Cc1c(F)ccc2cc(O)cc(-c3nc(OC(C)C)c4c(N5CC6CCC(C5)N6)nc(OCC5(CN6CCOCC6)CC5)nc4c3F)c12 [Compound 229] |
| < 500 nM | Cc1nc(-c2cc(O)cc3ccc(F)c(OC(F)F)c23)c(F)c2nc(OC[C@@]34CCCN3C[C@H](F)C4)nc(N3CC4CCC(C3)N4)c12 [Compound 144] |
| < 500 nM | C#Cc1c(F)ccc2cc(O)cc(-c3nc(OCC)c4c(N5CCNC6(CCC6)C5)nc(OC[C@@]56CCCN5C[C@H](F)C6)nc4c3F)c12 [Compound 172] |
| < 500 nM | C#Cc1c(F)ccc2cc(O)cc(-c3nc(OC(C)C)c4c(N5CC6CCC(C5)N6)nc(OC[C@@H]5C[C@@H](OC(=O)N(C)C)CN5C)nc4c3F)c12 [Compound 235] |
| < 500 nM | C#Cc1c(F)ccc2cc(O)cc(-c3nc(OC)c4c(N5CC6CCC(C5)N6)nc(OCC5(CN6CCN(C(=O)CCCCCCCCCCCCCCC)CC6)CC5)nc4c3F)c12 [Compound 224] |
| < 500 nM | C#Cc1c(F)ccc2cc(O)cc(-c3nc(OC)c4c(N5CC6CCC(C5)N6)nc(OC[C@@]56CCCN5[C@H](COC(=O)N(C)C)CC6)nc4c3F)c12 [Compound 175] |
| 500 to 5000 nM | C#Cc1c(F)ccc2cc(O)cc(-c3nc(O)c4c(N5CC6CCC(C5)N6)nc(OC[C@]56CCCN5[C@@H](COC(=O)N(C)C)CC6)nc4c3F)c12 [Compound 239] |
| < 500 nM | CCc1c(F)ccc2cccc(-c3nc(OC(C)C)c4c(N5CC6CCC(C5)N6)nc(OC[C@]56CCCN5[C@@H](COC(=O)N(C)C)CC6)nc4c3F)c12 [Compound 223] |
| < 500 nM | C#Cc1c(F)ccc2cc(O)cc(-c3nc(C4CC4)c4c(N5CC6CCC(C5)N6)nc(OC[C@@]56CCCN5C[C@H](F)C6)nc4c3F)c12 [Compound 181] |
| < 500 nM | C#Cc1c(F)ccc2cc(N)cc(-c3nc(OC(C)C)c4c(N5CC6CCC(C5)N6)nc(OC[C@@H]5C[C@@H](F)CN5C)nc4c3F)c12 [Compound 206] |
| < 500 nM | C#Cc1c(F)ccc2cc(O)cc(-c3nc(OC(C)C)c4c(N5CC6CCC(C5)N6)nc(C(F)F)nc4c3F)c12 [Compound 190] |
| < 500 nM | C#Cc1c(F)ccc2cc(O)cc(-c3nc(OCC)c4c(N5CC6CCC(C5)N6)nc(OCC5(CN6CCOCC6)CC5)nc4c3F)c12 [Compound 234] |
| < 500 nM | CCc1cccc2cc(N)cc(-c3nc(OC)c4c(N5CC6CCC(C5)N6)nc(OC[C@@]56CCCN5C[C@H](F)C6)nc4c3F)c12 [Compound 157] |
| < 500 nM | C#Cc1c(F)ccc2cc(O)cc(-c3ncc4c(N5CC6CCC(C5)N6)nc(OC[C@@]56CCCN5C[C@H](F)C6)nc4c3F)c12 [Compound 129] |
| 500 to 5000 nM | C#Cc1c(F)ccc2cc(N)cc(-c3nc(O)c4c(N5CC6CCC(C5)N6)nc(OC[C@@H]5C[C@@H](F)CN5C)nc4c3F)c12 [Compound 210] |
| < 500 nM | C#Cc1c(F)ccc2cc(O)cc(-c3nc(OCC)c4c(N5CC6CCC(C5)N6)ncnc4c3F)c12 [Compound 221] |
| < 500 nM | C#Cc1c(F)ccc2cc(O)cc(-c3nc(OC)c4c(N5CC6CCC(C5)N6)nc(OC)nc4c3F)c12 [Compound 162] |
| 500 to 5000 nM | C#Cc1c(F)ccc2cc(O)cc(-c3nc(OC(C)C)c4c(N5CC6CCC(C5)N6)nc(N(C)C)nc4c3F)c12 [Compound 189] |
| 500 to 5000 nM | C#Cc1c(F)ccc2cc(O)cc(-c3nc(OCC(F)(F)F)c4c(N5CC6CCC(C5)N6)ncnc4c3F)c12 [Compound 153] |
| 500 to 5000 nM | C#Cc1c(F)ccc2cccc(-c3nc(O)c4c(N5CC6CCC(C5)N6)nc(OC[C@@]56CCCN5C[C@H](F)C6)nc4c3F)c12 [Compound 154] |
| < 500 nM | C#Cc1c(F)ccc2cc(O)cc(-c3nc(OC(C)C)c4c(N5CC6CCC(C5)N6C)nc(OC[C@@]56CCCN5C[C@H](F)C6)nc4c3F)c12 [Compound 203] |
| 500 to 5000 nM | C#Cc1c(F)ccc2cc(O)cc(-c3nc(O)c4c(N5CC6CCC(C5)N6)nc(C(F)F)nc4c3F)c12 [Compound 211] |
| > 5000 nM | CCc1c(F)ccc2c(F)c(O)cc(-c3nc(C)c4c(N5CC6CCC(C5)N6)nc(OC[C@@]56CCCN5C[C@H](F)C6)nc4c3F)c12 [Compound 151] |
